Experiments:
[1] = target: T1, Avi-KRAS G12C (2-169) GTP/RAF1 RBD-3xFLAG (51-131) (Homo sapiens, UniProt P01116, G12C); assay: Raf1-KRAS G12C-GTP disruption HTRF assay (Biological Example 3); type: binding; conditions: KRAS G12C, GTP-loaded
T1 construct: Avi-KRAS G12C (2-169)
Procedure, shortened: (§1)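 An HTRF assay measured disruption of 50 nM Avi-KRAS (2-169)-GTP (WT, G12C, G12D or G12V) bound to RAF1 RBD-3xFLAG (51-131). Buffer was Tris pH 7.5 with 5 mM MgCl2 and 10% DMSO. Compounds (30–0.005 μM, 3-fold, 10 points) were incubated 1 h at room temperature, and activity is given as % of DMSO.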

[2] = target: T2, Avi-KRAS WT (2-169) GTP/RAF1 RBD-3xFLAG (51-131) (Homo sapiens, UniProt P01116); assay: Raf1-KRAS WT-GTP disruption HTRF assay (Biological Example 3); type: binding; conditions: KRAS WT, GTP-loaded
T2 construct: Avi-KRAS WT (2-169)
T2 sequence (P01116 2-169 isoform P01116-2): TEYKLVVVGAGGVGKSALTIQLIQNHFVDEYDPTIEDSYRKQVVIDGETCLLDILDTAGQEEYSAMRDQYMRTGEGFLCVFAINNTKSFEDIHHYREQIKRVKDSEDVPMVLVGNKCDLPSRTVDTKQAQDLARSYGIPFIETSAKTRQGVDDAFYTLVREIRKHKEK
Procedure, shortened: as §1

SW620 cells (KRAS G12V) = assay: Cell-based pERK HTRF assay in SW620 cell (Biological Example 4); conditions: Homo sapiens, SW-620, SW620 (KRAS G12V) cells
Procedure, shortened: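 SW620 cells were treated for 4 h with compound in a 9-point half-log series from 1 μM top (0.25% DMSO), then lysed. Phospho-ERK was detected by HTRF with d2 and Eu cryptate antibodies after 4–24 h at room temperature, read at 615 nm emission.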

[3] = target: T3, Avi-KRAS G12V (2-169) GTP/RAF1 RBD-3xFLAG (51-131) (Homo sapiens, UniProt P01116, G12V); assay: Raf1-KRAS G12V-GTP disruption HTRF assay (Biological Example 3); type: binding; conditions: KRAS G12V, GTP-loaded
T3 construct: Avi-KRAS G12V (2-169)
T3 sequence (P01116 2-169 isoform P01116-2 G12V): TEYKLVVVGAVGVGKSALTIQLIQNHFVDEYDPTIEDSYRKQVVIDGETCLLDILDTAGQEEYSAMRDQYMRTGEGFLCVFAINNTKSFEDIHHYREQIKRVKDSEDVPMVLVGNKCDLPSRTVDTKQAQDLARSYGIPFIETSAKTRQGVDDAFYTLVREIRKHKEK
Procedure, shortened: as §1

[4] = target: T4, Avi-KRAS G12D (2-169) GTP/RAF1 RBD-3xFLAG (51-131) (Homo sapiens, UniProt P01116, G12D); assay: Raf1-KRAS G12D-GTP disruption HTRF assay (Biological Example 3); type: binding; conditions: KRAS G12D, GTP-loaded
T4 construct: Avi-KRAS G12D (2-169)
T4 sequence (P01116 2-169 isoform P01116-2 G12D): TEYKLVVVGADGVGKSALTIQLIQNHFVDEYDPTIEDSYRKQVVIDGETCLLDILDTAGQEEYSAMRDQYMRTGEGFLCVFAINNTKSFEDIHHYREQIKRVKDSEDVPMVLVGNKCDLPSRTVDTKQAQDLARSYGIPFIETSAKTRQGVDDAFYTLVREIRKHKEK
Procedure, shortened: as §1

GP2d cells (KRAS G12D) = assay: Cell-based pERK HTRF assay in GP2d cell (Biological Example 2); conditions: GP2d, GP2d (KRAS G12D) cells
Procedure, shortened: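 Treatment with test compounds lasted one hour in DMEM containing 10% FBS, with DMSO held at 0.25%. Dilution series: 9 points, half-log spacing, highest 1 μM or 100 nM. Lysates were incubated 4–24 h at room temperature with antibody mix, then HTRF was read at 320 nm excitation.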

T1 sequence (P01116 2-169 isoform P01116-2 G12C): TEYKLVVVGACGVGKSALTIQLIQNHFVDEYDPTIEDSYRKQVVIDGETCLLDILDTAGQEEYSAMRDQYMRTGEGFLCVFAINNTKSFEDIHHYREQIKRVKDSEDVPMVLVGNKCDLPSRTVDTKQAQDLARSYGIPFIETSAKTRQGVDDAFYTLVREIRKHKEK

Row | SMILES | IC50 [1] | IC50 [2] | IC50 (SW620 cells (KRAS G12V)) | IC50 [3] | IC50 [4] | IC50 (GP2d cells (KRAS G12D))
1 | CCN(c1nc(OC[C@@]23CCCN2C[C@H](F)C3)nc2c(F)c(-c3ccc(F)c4sc(N)c(C#N)c34)c(C(F)(F)F)cc12)C1CCN(C(=O)C2CC2)C1 (stereo partly drawn) [Compound 903] | ≤ 100 nM | 100 to 1000 nM | < 100 nM | ≤ 100 nM | ≤ 100 nM | < 100 nM
2 | CCN(c1nc(OC[C@@]23CCCN2C[C@H](F)C3)nc2c(F)c(-c3ccc(F)c4sc(N)c(C#N)c34)c(C(F)(F)F)cc12)[C@H]1C[C@H]2[C@@H](C)OC(=O)N2C1 (atropisomer, axis not shown) [Compound 823] | 100 to 1000 nM | 100 to 1000 nM | < 100 nM | 100 to 1000 nM | 100 to 1000 nM | < 100 nM
3 | CCN(c1nc(OC[C@@]23CCCN2C[C@H](F)C3)nc2c(F)c(-c3ccc(F)c4sc(N)c(C#N)c34)c(C(F)(F)F)cc12)[C@H]1C[C@H]2[C@H](C)OC(=O)N2C1 (atropisomer, axis not shown) [Compound 836] | 100 to 1000 nM | 100 to 1000 nM | < 100 nM | 100 to 1000 nM | 100 to 1000 nM | < 100 nM
4 | CCN(c1nc(OC[C@@]23CCCN2C[C@H](F)C3)nc2c(F)c(-c3ccc(F)c4sc(N)c(C#N)c34)c(C(F)(F)F)cc12)[C@H]1CCN(C(=O)c2cncs2)C1 (atropisomer, axis not shown; (aS)) [Compound 906, 2-amino-4-((S)-4-(ethyl((S)-1-(thiazole-5-carbonyl)pyrrolidin-3-yl)amino)-8-fluoro-2-(((2R,7aS)-2-fluorotetrahydro-1H-pyrrolizin-7a(5H)-yl)methoxy)-6-(trifluoromethyl)quinazolin-7-yl)-7-fluorobenzo[b]thiophene-3-carbonitrile] | 100 to 1000 nM | 100 to 1000 nM | < 100 nM | 100 to 1000 nM | 100 to 1000 nM | < 100 nM
5 | CCN(c1nc(OC[C@@]23CCCN2C[C@H](F)C3)nc2c(F)c(-c3ccc(F)c4sc(N)c(C#N)c34)c(C(F)(F)F)cc12)[C@H]1C[C@@H](C)N(C(=O)C2CC2(F)F)C1 (stereo partly drawn) [Compound 877] | 1000 to 10000 nM | 1000 to 10000 nM | < 100 nM | 1000 to 10000 nM | 100 to 1000 nM | < 100 nM
6 | CCN(c1nc(OC[C@@]23CCCN2C[C@H](F)C3)nc2c(F)c(-c3ccc(F)c4sc(N)c(C#N)c34)c(C(F)(F)F)cc12)[C@H]1CCN(C(=O)O[C@@H]2CCOC2)[C@@H]1C (atropisomer, axis not shown) [Compound 824] | 100 to 1000 nM | 100 to 1000 nM | < 100 nM | 100 to 1000 nM | 100 to 1000 nM | < 100 nM
7 | CN(Cc1ncco1)c1nc(OC[C@@]23CCCN2C[C@H](F)C3)nc2c(F)c(-c3ccc(F)c4sc(N)c(C#N)c34)c(C(F)(F)F)cc12 (atropisomer, axis not shown) [Compound 885] | 100 to 1000 nM | 1000 to 10000 nM | < 100 nM | 100 to 1000 nM | 100 to 1000 nM | < 100 nM
8 | CCN(c1nc(OC[C@@]23CCCN2C[C@H](F)C3)nc2c(F)c(-c3ccc(F)c4sc(N)c(C#N)c34)c(C(F)(F)F)cc12)[C@H]1CCN(C(C)=O)[C@@H]1COC (atropisomer, axis not shown) [Compound 924] | 100 to 1000 nM | 100 to 1000 nM | < 100 nM | 100 to 1000 nM | 100 to 1000 nM | < 100 nM
9 | CCN(c1nc(OC[C@@]23CCCN2C[C@H](F)C3)nc2c(F)c(-c3ccc(F)c4sc(N)c(C#N)c34)c(C(F)(F)F)cc12)[C@H]1C[C@H]2[C@H](C)N(C)C(=O)N2C1 (atropisomer, axis not shown) [Compound 863] | ≤ 100 nM | 100 to 1000 nM | < 100 nM | ≤ 100 nM | ≤ 100 nM | < 100 nM
10 | CCN(c1nc(OC[C@@]23CCCN2C[C@H](F)C3)nc2c(F)c(-c3ccc(F)c4sc(N)c(C#N)c34)c(C(F)(F)F)cc12)[C@H]1C[C@H](COC)N(C(=O)N2CC(OC)C2)C1 (atropisomer, axis not shown) [Compound 839] | 100 to 1000 nM | 100 to 1000 nM | < 100 nM | 100 to 1000 nM | 100 to 1000 nM | < 100 nM
